Like-named read-outs stand apart in the source and are kept apart here.
Assays:
[1] = tested on: erythrocytic forms of P. falciparum (strain 3D7); experiment: Viability screening of antiplasmodial activity (SYBR-gold DNA quantification, 96 h); type: cell-based, Plasmodium falciparum; details: for activity at 0.3 µM / activity at 3 µM: 96 h; for activity at 0.3 µM: read-out: Parasitemia (3D7) at 0.3 µM [%]; for activity at 3 µM: read-out: Parasitemia (3D7) at 3 µM [%]; for SI (Selectivity index for 3D7 erythrocytic forms versus HEK293 cells): 3D7 versus HEK293 cells
[2] = biological target: rPfGSK-3 (Plasmodium falciparum, UniProt O77344); experiment: KinaseGlo Plus assay for inhibition of PfGSK-3; type: biochemical
Chain of rPfGSK-3 (O77344 entry or part of it): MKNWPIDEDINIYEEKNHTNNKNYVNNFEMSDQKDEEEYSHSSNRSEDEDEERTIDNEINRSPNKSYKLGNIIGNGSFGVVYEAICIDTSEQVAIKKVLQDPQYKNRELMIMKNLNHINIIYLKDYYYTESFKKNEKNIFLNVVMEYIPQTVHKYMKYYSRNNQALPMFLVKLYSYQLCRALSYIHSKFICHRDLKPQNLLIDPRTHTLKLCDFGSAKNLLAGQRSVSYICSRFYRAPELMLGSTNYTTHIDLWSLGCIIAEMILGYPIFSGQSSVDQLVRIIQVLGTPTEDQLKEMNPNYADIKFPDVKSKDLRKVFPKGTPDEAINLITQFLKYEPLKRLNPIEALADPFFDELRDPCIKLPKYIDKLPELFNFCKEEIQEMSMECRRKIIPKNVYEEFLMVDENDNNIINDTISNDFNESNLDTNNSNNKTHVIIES

[3] = tested on: rHsGSK-3; experiment: KinaseGlo Plus assay for inhibition of HsGSK-3; type: biochemical, human; details: for rHsGSK-3 Activity at 10 µM [%]: remaining activity, calculated on DMSO controls, Table 4
Description: A commercial luminescence-based kinase assay was used to investigate the enzymatic activity of kinases and to test potential kinase inhibitors. The KinaseGlo Plus assay (KinaseGlo Plus, Promega, Madison, WI, USA) provides a linear luminescence signal at ATP concentrations up to 100 μM and offers high signal stability. First, the kinase to be investigated and a corresponding substrate in the presence of ATP are used to perform the kinase reaction. During the substrate phosphorylation, ATP is consumed depending on the kinase activity. Subsequently, luminescence is generated by means of luciferase which is contained in the KinaseGlo Reagent. The intensity of the luminescence signal depends on the amount of ATP remaining in the reaction mixture. The luminescence […] to the enzymatic activity of the kinase. The following approach was used for the kinase reaction: rPfGSK-3 (see 3.4) or rHsGSK-3 (Promega, Madison, WI, USA) (20 ng), GS-1 substrate (Promega, Madison, WI, USA) (12 µg) and ATP (6 µg) (Ultra Pure, Promega, Madison, WI, USA) in 1× kinase reaction buffer (40 mM Tris-HCl pH 7.5, 20 mM MgCl2, 0.1 mg/mL BSA; final reaction volume 5 µL). The kinase reaction was performed for 30 min at 30 °C. The reaction mixture was then mixed with KinaseGlo Reagent (5 µL) and incubated for 10 min at room temperature. The mixture was transferred to a white 384-well plate (NUNC, ThermoFisher, Waltham, MA, USA) and the luminescence signal was measured in an EnVision Multilable Plate Reader (PerkinElmer, Waltham, MA, USA; integration time 0.5 sec/well). For the investigation, potential kinase inhibitors could be added directly to the kinase reaction. All kinase inhibitors were dissolved in DMSO. By appropriate pre-dilution of the inhibitors in kinase reaction buffer the final DMSO concentration in the kinase reaction was at most 1%. As negative control 1% DMSO without substance was measured. Since the luminescence signal is […] proportional to the ATP concentration, a control reaction (reaction without kinase) was measured simultaneously. The difference between kinase reaction and control reaction corresponds to the kinase activity. Using GraphPad Prism (version 6) the measured values were plotted and normalized to the DMSO control.

[4] = in vitro; type: cell-based, human; details: human, HEK293T Viability at 30 µM [%]
Description: (§1) Cytotoxic effects of test compounds on eukaryotic cells were investigated using a HEK293T cell viability assay. First, the cell density of a HEK293T culture was determined. […] The supernatant was then aspirated and fresh culture medium was added to 200 μL into which the test compounds were previously added. All substances were previously dissolved in DMSO. […] The viability of the cells was then examined by adding PrestoBlue® Cell Viability Agent (Invitrogen, Carlsbad, CA, USA). The supernatant was removed, 10% PrestoBlue® was added in preheated PBS and the culture was incubated for 30 min at 37 °C. In cells with an active metabolism, the PrestoBlue dye is reduced, causing it to fluorescence. The fluorescence (λex = 560 nm, λem = 590 nm) was measured in an EnVision Multilable Plate Reader (Perkin Elmer, Waltham, MA, USA; integration time 0.1 sec/well).

[5] = tested on: HEK293T cells; experiment: in vitro; type: cell-based, human; details: 30 µM
Description: as §1

[6] = Plasmodium falciparum, 3D7, strain 3D7, erythrocytic forms
[7] = Plasmodium falciparum, 0.3 µM, strain 3D7, calculated on DMSO controls
[8] = Plasmodium falciparum, 3 µM, strain 3D7, calculated on DMSO controls
[9] = 10 µM, remaining activity, calculated on DMSO controls, Table 3, read-out: rPfGSK-3 Activity at 10 µM [%]
[10] = read-out: rPfGSK-3 Activity at 10 µM [%], 10 µM, remaining activity, calculated on DMSO controls, Table 3

| Compound | IC50 [1, 6] [µM] | activity at 0.3 µM [1, 7] [%] | activity at 3 µM [1, 8] [%] | viability at 48 h, 30 µM [4] [%] | rHsGSK-3 Activity at 10 µM [%] [3] [%] | further results |
| --- | --- | --- | --- | --- | --- | --- |
| N#Cc1c(N)nc2sc(C(=O)Nc3ccc(Cl)cc3)c(N)c2c1-c1ccccc1Cl [Compound 3] | 0.199 |  |  |  |  | IC50 ([1]; strain 3D7, erythrocytic forms): 0.199 µM; inhibition of plasmodial GSK-3 (in words) [2]: neither an inhibitor; inhibition of human GSK-3 (in words) [3]: neither an inhibitor |
| CNC(=O)c1sc2nc(N)c(C#N)c(-c3cccc(C)c3)c2c1N [Compound 9j, 3,6-Diamino-5-cyano-N-methyl-4-(3-methylphenyl)thieno[2,3-b]pyridine-2-carboxamide] |  | 74.6 ± 28.6 | 108 ± 24.2 | 67.2 ± 21.5 | 87.6 ± 7.4 |  |
| Cc1cccc(-c2c(C#N)c(N)nc3sc(C(=O)NC4CC4)c(N)c23)c1 [Compound 9m, 3,6-Diamino-5-cyano-N-cyclopropyl-4-(3-methylphenyl)thieno[2,3-b]pyridine-2-carboxamide] |  | 74.9 ± 15.7 | 88 ± 18.2 | 74.3 ± 31.1 | 93.8 ± 2.1 | remaining activity at 10 µM [2, 9]: < 40% |
| Cc1cccc(-c2c(C#N)c(N)nc3sc(C(=O)NCCN4CCOCC4)c(N)c23)c1 [Compound 9n, 3,6-Diamino-5-cyano-N-(2-morpholinoethyl)-4-(3-methylphenyl)thieno[2,3-b]pyridine-2-carboxamide] |  | 58.7 ± 25.9 | 91.6 ± 19.2 | 70.9 ± 23.6 | 93.9 ± 3.2 | remaining activity at 10 µM [2, 9]: < 40% |
| Nc1c(C(=O)Nc2ccc(Cl)cc2)sc2nc3c(c(-c4ccccc4)c12)CCC3 [Compound 17b, 3-Amino-N-(4-chlorophenyl)-4-phenyl-6,7-dihydro-5H-cyclopenta[b]thieno[3,2-e]pyridine-2-carboxamide] | 0.193 | 7.2 ± 11.3 | 7.7 ± 14.7 | 92.7 ± 11.7 |  | SI (Selectivity index for 3D7 erythrocytic forms versus HEK293 cells) [1]: >100; HEK293T Viability at 30 µM [%] ([5]; human, 48 h): 89.0 ± 15.8%; remaining activity at 10 µM [2, 10]: 104 ± 15.5% |
| Nc1c(C(=O)Nc2ccc(F)cc2)sc2nc3c(c(-c4ccccc4)c12)CCC3 [Compound 17c, 3-Amino-N-(4-fluorophenyl)-4-phenyl-6,7-dihydro-5H-cyclopenta[b]thieno[3,2-e]pyridine-2-carboxamide] | 0.0716 | 23.6 ± 16.5 | 9.9 ± 17.1 | 92.7 ± 11.7 |  | SI (Selectivity index for 3D7 erythrocytic forms versus HEK293 cells) [1]: >100; IC50 (3D7) [nM] ([1]; strain 3D7, erythrocytic forms): two-digit nanomolar range; HEK293T Viability at 30 µM [%] ([5]; human, 48 h): 72.4 ± 23.4%; remaining activity at 10 µM [2, 10]: 103 ± 6.2% |
| Cc1cccc(-c2c3c(nc4sc(C(=O)Nc5ccc(Cl)cc5)c(N)c24)CCCC3)c1 [Compound 17e, 3-Amino-N-(4-chlorophenyl)-4-(3-methylphenyl)-5,6,7,8-tetrahydrothieno[2,3-b]quinoline-2-carbox-amide] |  |  |  |  |  | Parasitemia (3D7) at 0.3 µM [%] ([1]; 0.3 µM, strain 3D7, calculated on DMSO controls): 5.0 ± 11.6%; Parasitemia (3D7) at 3 µM [%] ([1]; 3 µM, strain 3D7, calculated on DMSO controls): 4.7 ± 13.5%; HEK293T Viability at 30 µM [%] [5]: 57.9 ± 20.6%; rPfGSK-3 Activity at 10 µM [%] ([2]; 10 µM, remaining activity, calculated on DMSO controls, Table 3): 103.1 ± 10.7% |

From paper PMC7397174, “4-Arylthieno[2,3-b]pyridine-2-carboxamides Are a New Class of Antiplasmodial Agents” (Molecules, 2020)
